# From ChEMBL document CHEMBL1250430, “Synthesis, semipreparative HPLC separation, biological evaluation, and 3D-QSAR of hydrazothiazole derivatives as human monoamine oxidase B inhibitors” (Bioorg Med Chem, 2010)
# Where “and” joins values, the source holds several entries; their conditions need not be identical. Identical values can stand only once.
# Biological target: T1, Amine oxidase [flavin-containing] A (Homo sapiens, UniProt P21397)
# T1 sequence (P21397 whole entry): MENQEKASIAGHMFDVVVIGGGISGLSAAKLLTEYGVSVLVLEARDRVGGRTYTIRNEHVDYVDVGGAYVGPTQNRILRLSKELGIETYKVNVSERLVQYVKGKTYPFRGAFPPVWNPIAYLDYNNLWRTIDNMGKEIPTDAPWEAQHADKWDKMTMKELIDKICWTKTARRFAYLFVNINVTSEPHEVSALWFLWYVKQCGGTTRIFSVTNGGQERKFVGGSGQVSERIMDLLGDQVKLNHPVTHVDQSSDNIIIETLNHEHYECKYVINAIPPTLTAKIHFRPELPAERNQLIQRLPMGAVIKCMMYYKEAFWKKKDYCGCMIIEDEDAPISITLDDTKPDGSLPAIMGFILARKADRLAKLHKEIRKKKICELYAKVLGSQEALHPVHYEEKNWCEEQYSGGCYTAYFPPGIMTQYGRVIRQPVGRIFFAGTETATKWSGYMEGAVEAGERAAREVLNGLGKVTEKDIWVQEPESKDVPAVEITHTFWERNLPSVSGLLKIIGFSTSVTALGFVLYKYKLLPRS
# Assay: biochemical
# Conditions: not given
row,SMILES,IC50
1,Clc1ccc(-c2csc(NN=C3CCCC3)n2)c(Cl)c1,54.5 µM
2,Fc1ccc(-c2csc(NN=C3CCCC3)n2)c(F)c1,2.29 µM and 2.32 µM
3,Clc1ccc(-c2csc(NN=C3CCCCCC3)n2)c(Cl)c1,59.3 µM

# Second part, the compound after the results:
row,IC50,SMILES
1,7.23 µM,Fc1ccc(-c2csc(NN=C3CCCCCC3)n2)c(F)c1
2,17.9 µM,O=[N+]([O-])c1ccc(-c2csc(NN=C3CCCCCC3)n2)cc1
3,45.8 µM,Fc1ccc(-c2csc(NN=C3CCCCC3)n2)c(F)c1
4,0.344 µM,O=[N+]([O-])c1ccc(-c2csc(NN=C3CCCC3)n2)cc1
5,0.644 µM,N#Cc1ccc(-c2csc(NN=C3CCCC3)n2)cc1

# Biological target: T1, Amine oxidase [flavin-containing] A
# Assay: not given
# Conditions: bti-tn-5b1-4
row,IC50 [µM],SMILES
1,81.5,CC1CCC(=NNc2nc(-c3ccc(Cl)cc3Cl)cs2)CC1 (centres undefined)
